Common to all, as to type: in vivo
Data set [1] deals with person with large cell lymphoma disease. Kind of data set: Working Example I: patient with large cell lymphoma given auranofin plus isosorbide dinitrate. The following applies: combination: 6 mg auranofin and 50 mg isosorbide dinitrate by mouth once a day for a month; patient not responding to treatment. Here is the method: A person with large cell lymphoma disease who was not responding to treatment was given by mouth 6 mg auranofin and 50 mg isosorbide dinitrate once a day for a month. Tumor burden decreases as determined by CAT scan.

In data set [2] the test system is person with glioblastoma. Kind of data set: Working Example XI: patient with glioblastoma. To be noted: oral capsule: 6 mg auranofin and 50 mg isosorbide dinitrate, or 6 mg auranofin and 150 mg/m^2 BCNU, or 2.5 mg auranofin and 2 gm L-BSO every 6 hours. On the procedure:
A person with glioblastoma is given orally a capsule containing 6 mg auranofin and 50 mg isosorbide dinitrate or 6 mg auranofin and 150 mg/m^2 BCNU or 2.5 mg auranofin and 2 gm L-BSO given every 6 hours. Regression in the cancer occurs.

Data set [3] deals with person with recurrent restenosis. Kind of data set: Working Example II: patient with recurrent restenosis given arsenic trioxide plus nitrate. To be noted: combination: 0.15 mg/kg/day IV arsenic trioxide and either 60 mg isosorbide mononitrate per day or nitroglycerin patch 1-2 inches up to 4 times a day; after one month. Here is the method:
A person with recurrent restenosis is give 0.15 mg/kg/day IV arsenic trioxide and either 60 mg isosorbide mononitrate per day or nitroglycerin patch of 1-2 inches up to 4 times a day.

Data set [4] has as its system person with pancreatic cancer. The experiment in a line: Working Example X: patient with pancreatic cancer. To be noted: combination: gene therapy for TrxIP and 10 gms sodium ascorbate by infusion per day. The text has this:
A person with pancreatic cancer is given gene therapy for TrxIP and by infusion per day 10 gms of sodium ascorbate. The cancer regresses.

For data set [5], the system named is person with septic shock. The experiment in a line: Working Example IX: patient with septic shock. The following applies: combination: gene therapy for TrxIP and 15 mg/kg intravenous L-NMMA (2 mg/kg IV TID). Here is the method: A person with septic shock is given gene therapy for TrxIP and 15 mg/kg intravenous L-NMMA (2 mg/kg IV TID).
The test system of data set [6] is person with Alzheimer's. The experiment in a line: Working Example IV: patient with Alzheimer's. To be noted: combination: NAC 300 mg/day, ascorbate 1 gm/day and minocycline 100 mg TID. On the procedure:
A person with Alzheimer's is then started on combination of NAC (300 mg/day), ascorbate 1 gm/day and minocycline 100 mg TID and memory improves.

Data set [7] deals with person with Parkinson's disease. Kind of data set: Working Example III: patient with Parkinson's disease. To be noted: combination: orally 300 mg N-acetylcysteine and 0.3 mg aptamer directed at Parkin by injection into spinal fluid, 30 days. On the procedure:
A person with Parkinson's disease is given orally 300 mg N-acetylcysteine and 0.3 mg dose by injection into spinal fluid (range may be 10 μg-2 mg of body weight) of aptamer directed at Parkin for 30 days. Movement improves.

Data set [8] relates to person with central core disease, malignant hyperthermia (MH). Kind of data set: Working Example VIII: patient with central core disease and malignant hyperthermia. To be noted: combination: deprenyl 10 mg and ISDN 5 mg po tid. On the procedure: A person with central core disease undergoes operation for pancreatic cancer and course complicated by malignant hyperthermia (MH). The patient is administered deprenyl 10 mg and ISDN 5 mg po tid with acute relief of MH and improvement in muscle function over time.

Data set [9] relates to person with rhematoid arthritis. Kind of data set: Working Example VII: patient with rheumatoid arthritis. To be noted: combination: deprenyl 10 mg plus ascorbate 1 gm plus ISDN 5 mg PO TID or plus cysteine or NaHS (final concentration in blood 10 μM-1 mM). Here is the method:
A person with rhematoid arthritis is administered deprenyl 10 mg plus ascorbate 1 gm plus ISDN 5 mg PO TID or plus cysteine or NaHS (final concentration in blood of 10 μM-1 mM). Progression of the disease slows.

The test system of data set [10] is with muscular dystrophy. Kind of data set: Working Example V: patient with muscular dystrophy. The following applies: combination: deprenyl 10 mg/day plus isosorbide dinitrate (ISDN) 10 mg/day. On the procedure: A person with muscular dystrophy is given deprenyl 10 mg/day plus isosorbide dinitrate (ISDN) 10 mg/day and weakness improves.
Data set [11] concerns 65 year with Alzheimers. Kind of data set: Working Example VI: patient with Alzheimers. The following applies: combination: deprenyl 15 mg and S-nitrosoglutathione 10 mg po TID. Here is the method: A 65 year with Alzheimers is administered deprenyl 15 mg and S-nitrosoglutathione 10 mg po TID. Blood pressure is unaltered but memory improves.

We go through 14 molecules from patent US20160106773A1, “TREATMENT FOR DISEASES RELYING ON DISCOVERY THAT THIOREDOXIN MEDIATES NITRIC OXIDE RELEASE IN CELLS” (Duke University, priority 2008, published 2016).

Take `CC(=O)OC[C@H]1O[C@@H]([S-])[C@H](OC(C)=O)[C@@H](OC(C)=O)[C@@H]1OC(C)=O.CCP(CC)CC.[Au+]` [auranofin]: in [1], the “Tumor burden as determined by CAT scan” value is reported as “decreases”. Moreover, the “Regression in the cancer” value in [2] is listed as “Regression”.
As for arsenic trioxide, in data set [3], the “disease (restenosis)” value was “abates”, the “incidence of thrombotic complication” value is “disappears” and the restenosis recurrence entry is “does not reoccur”.
As for `O=C1O[C@H]([C@@H](O)CO)C([O-])=C1O.[Na+]` [sodium ascorbate], the cancer regression entry in [4] is “regresses”.
With `O=NN(CCCl)C(=O)NCCCl` [BCNU, carmustine], in data set [2], the “Regression in the cancer” value is given as “Regression”.
As for `CCCCS(=N)(=O)CCC(N)C(=O)O` [L-BSO, L-buthionine-SR-sulfoximine], the “Regression in the cancer” value in data set [2] is “Regression”.
On to `O=[N+]([O-])OCC(CO[N+](=O)[O-])O[N+](=O)[O-]` [nitroglycerin], for which, in [3], the “disease (restenosis)” value is reported as “abates”, the “incidence of thrombotic complication” value is “disappears” and the restenosis recurrence result is “does not reoccur”.
As for `CC(=O)O.CNC(=N)NCCC[C@H](N)C(=O)O` [L-NMMA, Ng-monomethyl-L-arginine, monoacetate salt], the Blood pressure entry in data set [5] is “increases and stabilizes”.
For `CC(=O)N[C@@H](CS)C(=O)O` [N-acetylcysteine], the memory result in [6] is “improves”. Further, the Movement result in data set [7] is recorded as “improves”.
On to `C#CCN(C)[C@H](C)Cc1ccccc1` [deprenyl], for which, in data set [8], the “muscle function over time” value is listed as “improvement” and the “relief of MH (malignant hyperthermia)” value is “acute relief”. Besides, the “Progression of the disease” value in data set [9] is “slows”. For the same molecule, the weakness result in data set [10] is listed as “improves”. Moreover, in [11], the Blood pressure entry is on record as “unaltered” and the memory entry was “improves”.
Take `N[C@@H](CS)C(=O)O` [cysteine]: the “Progression of the disease” value in [9] is “slows”.
`O=[N+]([O-])O[C@H]1CO[C@H]2[C@@H]1OC[C@H]2O[N+](=O)[O-]` [isosorbide dinitrate]: in data set [8], the “muscle function over time” value was “improvement” and the “relief of MH (malignant hyperthermia)” value was “acute relief”. In addition, the “Tumor burden as determined by CAT scan” value in [1] is on record as “decreases”. For the same molecule, the “Regression in the cancer” value in data set [2] is “Regression”. Further, in [9], the “Progression of the disease” value is on record as “slows”. Besides, in data set [10], the weakness result is “improves”.
As to `[Na+].[SH-]` [NaHS], the “Progression of the disease” value in data set [9] is given as “slows”.
For the molecule `O=[N+]([O-])O[C@@H]1CO[C@H]2[C@@H]1OC[C@@H]2O` [isosorbide mononitrate], in [3], the “disease (restenosis)” value is reported as “abates”, the “incidence of thrombotic complication” value is recorded as “disappears” and the restenosis recurrence entry is given as “does not reoccur”.
As for `N[C@@H](CCC(=O)N[C@@H](CSN=O)C(=O)NCC(=O)O)C(=O)O` [S-nitrosoglutathione], in [11], the memory result is given as “improves”.
